“And” between values parts separate entries of the source, which are not always exact repeats. Equal values may be shown once. Toxic doses and inconclusive results are not listed. Rule for the calls: active = survival T/C of 150% or more; inactive = T/C below 125% in these data.
Tested on: CD2F1 mice, L1210 leukemia ip, survival T/C
Assay: NCI In Vivo Anticancer Drug Screen. Data for tumor model L1210 Leukemia (intraperitoneal) in CD2F1 (CDF1) mice
Details: endpoint: mean survival time, higher = longer survival
Outline: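 Antitumor effect is scored in animals hosting a serially transplanted tumor. Values compare compound-dosed animals against vehicle-only controls as a simple quotient.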

[1] = dose: 100.0 mg/kg/injection, schedule: Q04DX003 (ip), vehicle: saline
[2] = dose: 200.0 mg/kg/injection, schedule: Q04DX003 (ip), vehicle: saline
[3] = dose: 400.0 mg/kg/injection, schedule: Q04DX003 (ip), vehicle: saline
[4] = dose: 25.0 mg/kg/injection, schedule: Q04DX002 (ip), vehicle: saline with Tween-80
[5] = dose: 25.0 mg/kg/injection, schedule: Q04DX003 (ip), vehicle: saline with Tween-80
[6] = dose: 50.0 mg/kg/injection, schedule: Q04DX003 (ip), vehicle: saline with Tween-80
[7] = dose: 100.0 mg/kg/injection, schedule: Q04DX003 (ip), vehicle: saline with Tween-80
[8] = dose: 12.5 mg/kg/injection, schedule: Q01DX009 (ip), vehicle: saline with Tween-80
[9] = dose: 25.0 mg/kg/injection, schedule: Q01DX009 (ip), vehicle: saline with Tween-80
[10] = dose: 50.0 mg/kg/injection, schedule: Q01DX009 (ip), vehicle: saline with Tween-80
[11] = dose: 200.0 mg/kg/injection, schedule: Q04DX003 (ip), vehicle: saline with Tween-80
[12] = dose: 400.0 mg/kg/injection, schedule: Q04DX003 (ip), vehicle: saline with Tween-80
[13] = dose: 100.0 mg/kg/injection, schedule: Q01DX009 (ip), vehicle: saline with Tween-80
[14] = dose: 200.0 mg/kg/injection, schedule: Q01DX009 (ip), vehicle: saline with Tween-80
[15] = dose: 100.0 mg/kg/injection, schedule: Q04DX002 (ip), vehicle: saline with Tween-80
[16] = dose: 400.0 mg/kg/injection, schedule: Q04DX002 (ip), vehicle: saline with Tween-80
[17] = dose: 200.0 mg/kg/injection, schedule: Q01DX009 (ip), vehicle: saline

Measured: T/C

O=C1C(c2ccccc2)=C(c2ccccc2)c2cc(Br)c(Br)cc21
inactive: dose: 50.0 mg/kg/injection, schedule: Q01DX001 (ip), vehicle: saline with Tween-80 93 % of control | dose: 100.0 mg/kg/injection, schedule: Q01DX001 (ip), vehicle: saline with Tween-80 93 % of control | dose: 200.0 mg/kg/injection, schedule: Q01DX001 (ip), vehicle: saline with Tween-80 93 % of control

Cc1cccc(CCc2cccc(C)n2)n1
inactive: [1] 103 % of control | [2] 103 % of control | [3] 103 % of control

CCCCCCCCCCCCCCCCNS(=O)(=O)c1ccc2sc(SC)nc2c1
inactive: dose: 12.5 mg/kg/injection, schedule: Q04DX002 (ip), vehicle: saline with Tween-80 93 % of control | [4] 93 % of control

OCCNC(=S)Nc1ccccc1
inactive: dose: 7.5 mg/kg/injection, schedule: Q01DX009 (ip), vehicle: saline 97 % of control | dose: 15.0 mg/kg/injection, schedule: Q01DX009 (ip), vehicle: saline 95 % of control | [5] 98 % of control | dose: 30.0 mg/kg/injection, schedule: Q01DX009 (ip), vehicle: saline 89 % of control | [6] 101 % of control | [7] 100 % of control

Cc1ccc[n+](CCc2c[nH]c3ccccc23)c1
inactive: [8] 100 % of control | [9] 96 % of control | [5] 98 % of control | [10] 101 % of control | [6] 95 % of control

O=[N+]([O-])c1ccc(/C=C/C=C/c2ccccc2)cc1
inactive: [7] 101 % of control | [11] 98 % of control | [12] 95 % of control

CCOC(Cc1cccc2ccccc12)(c1ccccc1)c1ccccc1
inactive: [7] 101 % of control | [11] 98 % of control | [12] 101 % of control

CSc1cc(C)n2nnnc2n1
inactive: dose: 100.0 mg/kg/injection, schedule: Q01DX001 (ip), vehicle: saline 101 % of control

O=C(CNC(=O)Nc1cccc(C(F)(F)F)c1)N/N=C/c1ccco1
inactive: [10] 92 % of control | [13] 92 % of control | [14] 88 % of control

O=C1c2ccccc2C(=O)N1CNc1cccc(NCN2C(=O)c3ccccc3C2=O)n1
inactive: [7] 104 % of control | [11] 106 % of control | [12] 90 % of control

Cc1cncn1Cc1ccccc1
inactive: dose: 50.0 mg/kg/injection, schedule: Q01DX009 (ip), vehicle: Klucel (hydroxypropylcellulose) (HPC) 94 % of control | dose: 100.0 mg/kg/injection, schedule: Q01DX009 (ip), vehicle: Klucel (hydroxypropylcellulose) (HPC) 108 % of control | dose: 200.0 mg/kg/injection, schedule: Q01DX009 (ip), vehicle: Klucel (hydroxypropylcellulose) (HPC) 103 % of control

CCCCNCCC(SSSC(CCNCCCC)c1ccc(Cl)cc1)c1ccc(Cl)cc1 (stereo not drawn)
inactive: dose: 6.25 mg/kg/injection, schedule: Q01DX009 (ip), vehicle: saline with Tween-80 101 % of control | [8] 95 % of control | [9] 95 % of control

COC(=O)c1cccc(C)n1
inactive: [13] 108 % of control | [14] 94 % of control | dose: 400.0 mg/kg/injection, schedule: Q01DX009 (ip), vehicle: saline with Tween-80 94 % of control

CC(C)C1=CCC(OC(=O)N=C=Nc2ccccc2)CC1 (stereo not drawn)
inactive: dose: 100.0 mg/kg/injection, schedule: Q01DX001 (ip), vehicle: Klucel (hydroxypropylcellulose) (HPC) 93 % of control | [15] 90 % of control | dose: 200.0 mg/kg/injection, schedule: Q01DX001 (ip), vehicle: Klucel (hydroxypropylcellulose) (HPC) 91 % of control | dose: 200.0 mg/kg/injection, schedule: Q04DX002 (ip), vehicle: saline with Tween-80 96 % of control | dose: 400.0 mg/kg/injection, schedule: Q01DX001 (ip), vehicle: Klucel (hydroxypropylcellulose) (HPC) 94 % of control | [16] 93 % of control

ClCC[Se](Cl)(Cl)c1ccccc1
inactive: dose: 0.78 mg/kg/injection, schedule: Q01DX009 (ip), vehicle: saline 96 % of control and 110 % of control | dose: 1.56 mg/kg/injection, schedule: Q01DX009 (ip), vehicle: saline 108 % of control | dose: 3.12 mg/kg/injection, schedule: Q01DX009 (ip), vehicle: saline 108 % of control and 112 % of control | dose: 6.25 mg/kg/injection, schedule: Q01DX009 (ip), vehicle: saline 115 % of control and 122 % of control

O=S(=O)(/C(=C\c1ccccc1)c1ccccc1)c1ccccc1
inactive: [1] 90 % of control | [17] 90 % of control | [2] 92 % of control | dose: 400.0 mg/kg/injection, schedule: Q01DX009 (ip), vehicle: saline 88 % of control | [3] 90 % of control

COc1cc(C2=NCCO2)cc(OC)c1OC
inactive: [7] 103 % of control | [11] 93 % of control | [12] 93 % of control

O=C(NC(=O)c1cn(C2OC(CO)C(O)C2O)nn1)Nc1ccc(Cl)cc1 (stereo not drawn)
inactive: dose: 12.5 mg/kg/injection, schedule: Q01DX005 (ip), vehicle: other 93 % of control | dose: 50.0 mg/kg/injection, schedule: Q01DX005 (ip), vehicle: other 90 % of control

C[C@]1(O)CC[C@H]2[C@@H]3CCC4=CC(=O)CC[C@]4(C)[C@@]3(Cl)[C@@H](O)C[C@@]21C
inactive: dose: 100.0 mg/kg/injection, schedule: Q04DX003 (ip), vehicle: saline sonified 101 % of control | dose: 176.0 mg/kg/injection, schedule: Q04DX003 (ip), vehicle: saline with Tween-80 91 % of control | dose: 200.0 mg/kg/injection, schedule: Q04DX003 (ip), vehicle: saline sonified 107 % of control | dose: 264.0 mg/kg/injection, schedule: Q04DX003 (ip), vehicle: saline with Tween-80 96 % of control | [12] 94 % of control

O.[Co].[NH2-].[NH2-].[NH2-].[NH2-].[NH2-]
inactive: [4] 93 % of control | [15] 90 % of control | dose: 100.0 mg/kg/injection, schedule: Q04DX002 (ip), vehicle: saline 98 % of control

CSC(=S)N(C)/N=C/c1cccc(C)n1
inactive: [7] 96 % of control | [11] 102 % of control | [12] 102 % of control

O=C(CCl)NCCCNC(=O)CCl
inactive: [7] 105 % of control

NC(=O)SCC(N)C(=O)O (stereo not drawn)
inactive: dose: 50.0 mg/kg/injection, schedule: Q01DX009 (ip), vehicle: saline 101 % of control | dose: 100.0 mg/kg/injection, schedule: Q01DX009 (ip), vehicle: saline 101 % of control | [17] 109 % of control | dose: 300.0 mg/kg/injection, schedule: Q01DX009 (ip), vehicle: saline 107 % of control

Cc1c(C=[N+]2CCCCC2)c2ccccc2n1C
inactive: [8] 95 % of control | [9] 95 % of control | [10] 93 % of control | [13] 87 % of control | [15] 100 % of control | [16] 112 % of control

c1ccc(CC23CCCCC2N3)cc1 (stereo not drawn)
inactive: dose: 100.0 mg/kg/injection, schedule: Q01DX001 (ip), vehicle: saline sonified 96 % of control | dose: 200.0 mg/kg/injection, schedule: Q01DX001 (ip), vehicle: saline sonified 94 % of control

CCCCOC(=O)c1ccc(NC(=O)Nc2ccccc2)cc1
inactive: [9] 92 % of control | [10] 97 % of control | [13] 93 % of control

O=S(c1ccc(O)cc1)c1ccc(O)cc1
inactive: [10] 90 % of control | [13] 94 % of control

c1cc(C2CCOCC2)ccn1
inactive: [10] 109 % of control | [1] 92 % of control | [2] 90 % of control

Reference: PubChem BioAssay AID256 (DTP/NCI, 2004)
